Source: US9334272B2, “Derivatives of purinic and pyrimidinic antiviral agents and use thereof as potent anticancer agents” (Ramot at Tel-Aviv University Ltd., priority 2007, dated 2016)

Columns and labels:
[1] = test system: primary rat astrocytes; settings: 50 μM, 24 hours
Procedure: Brains were removed from neonatal rats, and the cerebral cortex was dissected and minced. The cells were dissociated by vigorous shaking in DMEM supplemented with 20% FCS, and cells from 3 brains were seeded in 20 mL of the medium. After one week, the serum concentration was reduced to 10%.
Cells were seeded in six-well plates (10^5 cells/well) for 24 hours and were then treated as specified, trypsinized, washed with PBS, double-stained with annexin V-FITC (fluorescein isothiocyanate) and propidium iodide, according to the manufacturer's instructions and subjected to flow cytometry analysis (FACScalibur cytometer, Becton Dickinson).

[2] = test system: 3LLD122 Lewis lung carcinoma; assay: Metastatic Lewis lung carcinoma (3LL) model; type: in vivo, mice; settings: Compound 6 30 mg/kg, Compound 7 25 mg/kg, per os thrice per week, 21 days; p<0.02 vs acyclovir
Procedure: Female C57/BL mice, 7-10 weeks old, were acclimated for ten days. All in vivo experiments were conducted according to the NIH Laboratory Animal Care Guidelines and in accordance with the guidelines and approval of the Tel Aviv University Committee for Animal Experimentation.
The subclone 3LLD122 of 3LL used in the study was selected for its aggressive and invasive nature. […] The animals were sacrificed after 21 days of treatment, their lungs were weighed, stained with Bouin's fixative and the metastatic lesions were scored double-blindly.

[3] = test system: HL-60 cells; assay: MTT viability assay, HL-60 leukemic cells; type: cell-based, human
Procedure: (§1) Cells (in quadruplicate) at the specified density were suspended in 200 μL medium supplemented with 10% FCS seeded in 96-well plates for 24 hours, then exposed to the drugs for 72 hours. The viability of the cells was determined by Hoechst fluorescent assay as described by Nudelman et al., 2005. Leukemic cell viability after 72 hours of treatment was determined by an MTT (3-(4,5-dimethylthiazol-2-yl)-2,5-diphenyltetrazolium bromide) assay as described by Levovich et al., 2007.
(§2) IC50 values were determined by linear regression of the percentage of survival following drug titration.

[4] = test system: 22RV1 cells; assay: Hoechst viability assay, 22RV1 prostate carcinoma cells; type: cell-based, human
Procedure: as §1, §2

[5] = test system: 4T1 cells; assay: Hoechst viability assay, 4T1 breast carcinoma cells (Dox combination); type: cell-based, murine; settings: Mus musculus, 72 hours, 3 experiments
Procedure: as §1, §2
The combination index for drug interaction was calculated by Chou's Median Effect Analysis (MEA) [Chou, 2006]. The combination index (CI) was defined as CI=D1/(DM)1+D2/(DM)2, where D1 and D2 are the doses of drug 1 and drug 2, respectively, (DM)1 and (DM)2 are the doses of drug 1 and drug 2 and their mixture (in a specified ratio) required to produce a median effect, e.g., IC50. CI<1, =1 or >1 indicates synergism, additive effect, and antagonism respectively.

[6] = test system: p21; assay: p21 Western blot, U-251 cells; type: cell-based, human; settings: compared with Compound 12 and acyclovir
Procedure: Cell lysates or acid extracted histones were solubilized in a concentrated (×4) loading buffer (62.5 mM Tris-HCl, pH 6.8, 1% SDS, 10% glycerol v/v, 1% dithiothreitol (DTT) and 0.1 mg/ml bromophenol blue). Proteins (10-40 μg) were run on SDS-PAGE, transferred to a nitrocellulose membrane (Schleicher & Schuell, Germany) and probed with the primary antibodies, followed by incubation with a horseradish peroxidase (HRP)-goat anti-rabbit IgG or HRP-rabbit anti-mouse IgG as secondary antibodies. HRP bound to the secondary antibodies was visualized by the enhanced chemiluminescence method using the Western Blotting Luminol reagent (Santa Cruz, Calif., USA). The membrane was exposed for 5 minutes to Chemiluminescence BioMax light film (Kodak, USA) and the intensity of the bands was measured with a VersaDoc instrument with a Quantityl program (Bio-Rad, USA). The fold increase of each specific protein was determined by the ratio of band intensities of treated and untreated cells, normalized to loading control (actin or total histone H3).

[7] = test system: U-251 cells; assay: Cell cycle analysis (propidium iodide flow cytometry), U-251 cells; type: cell-based, human
Procedure: Cells (4×10^5) were seeded in 35 mm culture dishes and after 24 hours were starved in medium without serum for an additional 24 hours, and then treated with the drug for an additional 24 hours. The cells were then trypsinized to a single cell suspension in PBS, washed, and resuspended in PBS at a concentration of 10^6 cells/mL. The cells were fixed with 70% ethanol for 30 minutes at 4° C., centrifuged and resuspended in 1 ml PBS containing 0.1% Tween 20 and 0.05% bovine serum albumin (BSA). RNase free of DNase was added, and the cell suspension (10^6 cells) was incubated at […] for 30 minutes. The cell suspension was then chilled on ice to a temperature in the range of 2 to 8° C. Propidium iodide (50 μg/mL) was added to the cell suspension, which was than kept in the dark. Red fluorescence (>630 nm) was analyzed on the flow cytometer.

[8] = test system: U-251 cells; assay: Mitochondrial membrane potential (JC-1 staining), U-251 cells; type: cell-based, human; settings: 60 μM, 24 hour treatment
[9] = test system: U-251 cells; assay: Apoptosis/cell death by annexin V-FITC and propidium iodide FACS, U-251 cells; type: cell-based
[10] = test system: U-251 cells; assay: Nitric oxide production assay, U-251 cells; type: cell-based, human; settings: 50 μM (mixture 50 μM + 50 μM), 1 hour treatment
Procedure: U251 cells (5×10^4) were seeded in 24 well plates, and after 24 hours washed and resuspended in PBS. […] Fluorescence was measured with excitation/emission filters of 390/440 nm in a FluoStar fluorimeter. The concentration of nitrate was determined by subtracting the nitrite concentration from the total concentration of nitrite+nitrate.

CCCC(CCC)C(=O)Nc1nc2c(ncn2COCCOC(=O)C(CCC)CCC)c(=O)[nH]1 [Compound 6, N-valproyl-9-(2-valproyloxy)ethoxymethylguanine]
viability of primary culture of astrocytes [1]: did not affect the viability | number of lung macro-lesions (anti-metastatic activity) [2]: significant anti-metastatic activity | IC50 fold lower than that of VA [3]: over 20 fold | IC50 fold lower than that of the mixture of VA and acyclovir ([3]; acyclovir:VA 1:2): over 50 fold | activity relative to acyclovir [4]: > 100 fold | IC50 ([4]; Homo sapiens, 72 hours, Hoechst, read-out: IC50): 23.2 ± 1.9 µM | IC50 [5]: 33.7 µM | expression of p21 [6]: induces expression of the cyclin dependent kinase inhibitor p21 more quickly and to a greater extent | Percentage of cells in G0-G1 stage ([7]; 25 μM, 24 hours): 48.5% | Percentage of cells in G2-M stage ([7]; 25 μM, 24 hours): 33.9% | Percentage of cells in S stage ([7]; 25 μM, 24 hours): 17.5% | Percentage of cells in G0-G1 stage ([7]; 50 μM, 24 hours): 77.1% | Percentage of cells in G2-M stage ([7]; 50 μM, 24 hours): 13.3% | Percentage of cells in S stage ([7]; 50 μM, 24 hours): 9.5% | cell-cycle arresting concentration, fold lower than acyclovir and valproic acid ([7]; 25-50 μM vs 1 mM): at least 20 fold | phase of cell-cycle arrest ([7]; 25-50 μM, 24 hours): G0-G1 phase | mitochondrial membrane potential [8]: increased the number of mitochondria with reduced membrane potentials | mortality at 50 µM ([9]; Homo sapiens, U-251 glioblastoma cells, 50 μM, 24 hours (untreated 9%)): 29% | percentage of apoptotic cells ([9]; U-251 cells, 24 hours): increased the percentage of apoptotic cells in a dose dependent manner | NO production [10]: increased NO production in U-251 cells considerably
